Test results from PubChem BioAssay AID463178 (University of Pittsburgh Molecular Library Screening Center, 2010).
The source made the active and inactive calls.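 How the source made its calls: active means IC50 below a set limit in both duplicate runs and mean IC50 below a set limit; inconclusive means IC50 above a set limit in only one run; inactive means IC50 above a set limit in both runs and mean.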

The compounds below were run on Jurkat FADD-/- TNF-alpha necroptosis, CellTiter-Glo ATP, 24 h (assay: rescue of FADD-deficient Jurkat cells, IC50 – duplicate IC50, dose response (AID 463178)).

SMILES | IC50
COc1ccc(-n2c(C)nc3sc4c(c3c2=O)CCC4)cc1 | 4.17 µM
C/C(Cl)=C/CN1C(=O)C2C3C=CC(C3)C2C1=O (stereo unspecified) | 6.41 µM
O=C1c2ccsc2SCCN1Cc1ccccc1 | 6.07 µM
O=[N+]([O-])c1ccc(Nc2ccccc2)nc1 | 15.3 µM
Cc1cc(N/N=C/c2ccncc2)nc2ccccc12 | > 20 µM (inactive)
c1ccc(C2CC3CC4(CCCC4)N2O3)cc1 (stereo unspecified) | 3.81 µM
CC(C)c1ccc(O)c(NC(=O)c2cncc(Br)c2)c1 | > 20 µM (inactive)
CC(=O)OC(C(=O)NC1CCCCC1)c1ccc(Cl)c(Cl)c1 (stereo unspecified) | > 20 µM (inactive)
Cc1nn(Cc2c(F)cccc2Cl)c(C)c1[N+](=O)[O-] | > 20 µM (inactive)
Cc1ccc(NC(=O)C2COc3ccccc3O2)nc1 (stereo unspecified) | 10 µM
S=C(Nc1ccccc1)N1N=CCC1c1ccccc1 (stereo unspecified) | 7.65 µM
Cc1ccc(Oc2ccccc2/C=C2\SC(=O)N(C)C2=O)cc1 | > 20 µM (inactive)
CCC(C)c1ccc(O)c(NC(=O)c2cncc(Br)c2)c1 (stereo unspecified) | > 20 µM (inactive)
Cc1nnsc1C(=O)NNc1c(Cl)cccc1Cl | 5.04 µM
O=C(Nc1ccc(Cl)c(Cl)c1)N1N=CCC1c1ccccc1 (stereo unspecified) | 11.8 µM
O=C(CSCc1ccc([N+](=O)[O-])cc1)NC1CC2CCC1C2 (stereo unspecified) | 13.6 µM
c1ccc(CSc2nnc(-c3ccco3)o2)cc1 | 17.3 µM
Cc1ccc(CN2CCSc3sccc3C2=O)cc1 | 9.28 µM
COC(C(=O)Nc1ccc(F)cc1F)c1ccccc1 (stereo unspecified) | 0.969 µM
CCn1c([N+](=O)[O-])nc2c1c(=O)[nH]c(=O)n2C | > 20 µM (inactive)
Clc1ccc(COn2ccnc2)cc1Cl | 1.97 µM
COC(C(=O)Nc1ccc(Br)cc1F)c1ccccc1 (stereo unspecified) | 10.7 µM
O=C(CSCc1ccc([N+](=O)[O-])cc1)NC1CCCCCC1 | 10 µM
Brc1ccc(COn2ccnc2)cc1 | 6.31 µM

SMILES | IC50
N#CCSc1nc2sc3c(c2c(=O)n1C1CCCCC1)CCCC3 | > 20 µM (inactive)
COc1ccc(NC(=O)C(OC)c2ccccc2)cc1Cl (stereo unspecified) | 12 µM
O=C1CC(c2ccccc2)C(=O)N1c1cccc(O)c1 (stereo unspecified) | 12.9 µM
O=[N+]([O-])c1ncn(Cc2ccccc2Cl)n1 | 2.51 µM
O=C(Nc1ncc(Cc2ccccc2)s1)C1COc2ccccc2O1 (stereo unspecified) | > 20 µM (inactive)
COC(C(=O)Nc1ccccc1F)c1ccccc1 (stereo unspecified) | 4.25 µM
Cc1ccc(NC(=O)CSCc2ccc(F)cc2)cc1 | > 20 µM (inactive)
O=C(C1=NNCC1c1ccc(Cl)cc1)C1CO1 (stereo unspecified) | 7.86 µM
COc1ccc(/C=C2\N=C(SC)NC2=O)cc1 | > 20 µM (inactive)
O=C(NCc1c(Cl)cccc1Cl)c1ccc2nnsc2c1 | > 20 µM (inactive)
Cc1nn(Cc2ccccc2)c(N)c1C#N | 9.44 µM
O=[N+]([O-])c1ncn(Cc2c(Cl)cccc2Cl)n1 | 13.1 µM
C=C(C)CSc1nnc2n(Cc3ccccc3)c(=O)c3c4c(sc3n12)CCC4 | > 20 µM (inactive)
COC(C(=O)Nc1cccc(F)c1)c1ccccc1 (stereo unspecified) | 6.43 µM
COC(C(=O)Nc1ccc(F)cc1)c1ccccc1 (stereo unspecified) | 2.15 µM
Cc1ccc(CC(=O)Nc2ncc([N+](=O)[O-])s2)cc1 | > 20 µM (inactive)
O=C(Nc1cccc(Cl)c1)N1N=CCC1c1ccccc1 (stereo unspecified) | 1.28 µM
O=C(OC(C(=O)Nc1ccc([N+](=O)[O-])cc1Br)c1ccccc1)c1ccccc1 (stereo unspecified) | > 20 µM (inactive)
CC(=O)N(CC1CCCO1)c1nnc(-c2cnccn2)s1 (stereo unspecified) | 5.94 µM
CC(=O)Nc1ccc(/C=N/Nc2nc3ccccc3s2)cc1 | > 20 µM (inactive)
Clc1ccc(C2=NNC(=NCc3ccccc3)SC2)cc1 | > 20 µM (inactive)
COc1ccc(NC(=S)N2N=CCC2c2ccccc2)cc1 (stereo unspecified) | 12.9 µM
Cc1csc(Nc2ccccc2)[n+]1-c1ccccc1 | > 20 µM (inactive)
Cc1nc2oc3ccccc3c(=O)c2c(=O)n1Cc1ccccc1 | 14.4 µM

SMILES | IC50
CN=C(Cc1ccccc1)C1=C(O)CC(C)(C)CC1=O | 4.76 µM
COC(=O)c1ccn(Cc2ccccc2Cl)n1 | 0.881 µM
O=C(CSc1ccc(Cl)cc1)N1N=CCC1c1ccccc1 (stereo unspecified) | 16.4 µM
Cc1ccc(Cn2cnc3sc4c(c3c2=O)CCC4)c(C)c1 | > 20 µM (inactive)
O=C(c1ccc([N+](=O)[O-])cc1)N1CCSC1c1ccccc1Cl (stereo unspecified) | > 20 µM (inactive)
COc1ccc(-n2cnc3cc(NS(=O)(=O)c4ccccc4)ccc32)cc1 | > 20 µM (inactive)
O=C1NC(Cc2c[nH]c3ccccc23)C(=O)N1CCOc1ccc(F)cc1 (stereo unspecified) | 10 µM
COc1cc(/C=N/Nc2nc3ccccc3[nH]2)cc(Br)c1OCC(=O)N(C)C | > 20 µM (inactive)
COC(C(=O)Nc1ccc(F)c(F)c1)c1ccccc1 (stereo unspecified) | 1.52 µM
O=C(Cc1c(F)cccc1Cl)Nc1ncc([N+](=O)[O-])s1 | > 20 µM (inactive)
Fc1ccc(NC(=S)N2N=CCC2c2ccccc2)cc1 (stereo unspecified) | 3.38 µM
O=C(COc1ccccc1Cl)NC(=O)NC1CCCC1 | 12.6 µM
COc1ccc(C2CN=NC2C(=O)c2ccccc2)cc1 (stereo unspecified) | 16.4 µM
Clc1ccc2[nH]c3c(c2c1)CCc1cn[nH]c1-3 | 5.28 µM
CC(NC(=O)c1cc(Br)ccc1Cl)c1ccccc1 (stereo unspecified) | > 20 µM (inactive)
Cc1ccc2[nH]c3c(c2c1)CCc1cn[nH]c1-3 | 1.14 µM
COc1ccc(-c2nc3c(-c4ccccc4)cnn3cc2C)cc1F | > 20 µM (inactive)
COCCNS(=O)(=O)c1ccc(SC)cc1 | 9.06 µM
Cc1ccc(C(=O)NC(C#N)=C(Cl)Cl)cc1 | > 20 µM (inactive)
O=C(O)c1ccc(/C=N/Nc2ccc(C(F)(F)F)cn2)cc1 | 6.32 µM
O=C1NC(=Nc2ccccc2)SC1Cc1cccc(Cl)c1Cl (stereo unspecified) | > 20 µM (inactive)
O=C(Nc1cccc2ccccc12)N1N=CCC1c1ccccc1 (stereo unspecified) | > 20 µM (inactive)
Cc1ccc(SCC(=O)N2N=CCC2c2ccccc2)cc1 (stereo unspecified) | 11.8 µM
O=C(CSC(=S)N1CCOCC1)N1N=CCC1c1ccccc1 (stereo unspecified) | 9.41 µM

SMILES | IC50
COc1ccc(/C=N/Nc2ccccn2)cc1OC | > 20 µM (inactive)
CC(Nc1nc(-c2ccc3c(c2)NC(=O)CO3)cs1)c1ccccc1 (stereo unspecified) | > 20 µM (inactive)
Cc1csc(SCC(=O)NC(=O)NC2CCCC2)n1 | 12.2 µM
O=C(Nc1ccc(Cl)cn1)C1COc2ccccc2O1 (stereo unspecified) | > 20 µM (inactive)
O=[N+]([O-])c1ccc(Nc2ccccc2F)nc1 | 15.5 µM
CC(=O)Nc1ccn(Cc2c(F)cccc2Cl)n1 | 3.52 µM
O=C(Nc1nccs1)c1cc2c(s1)CCCCC2 | > 20 µM (inactive)
OC(c1ccccc1)c1nc2ccccc2s1 (stereo unspecified) | 14.6 µM
CC(=O)N(CC1CCCO1)c1nnc(-c2ccccn2)s1 (stereo unspecified) | 9.72 µM
O=[N+]([O-])c1ccc(Nc2ccc(F)cc2)nc1 | 14.6 µM
O=C(C1COc2ccccc2O1)N1CCc2ccccc21 (stereo unspecified) | 5.82 µM
O=[N+]([O-])c1ccc(Nc2cccc(F)c2)nc1 | 19.6 µM
CC(=O)N(c1ccccc1)c1nnc(-c2cnc(C)cn2)s1 | 10.6 µM
Cc1nnsc1C(=O)NCc1c(F)cccc1Cl | 7.64 µM
O=[N+]([O-])c1ccc(Nc2ccc(Cl)cc2)nc1 | > 20 µM (inactive)
O=C(Nc1nccs1)c1ccc(S(=O)(=O)N2CCCCC2)cc1 | > 20 µM (inactive)
O=C(CSc1nnc2n1CCCN2C(=S)Nc1ccc(Cl)cc1)c1ccccc1 | > 20 µM (inactive)
O=C(Cn1cnc2ccc(Cl)cc2c1=O)c1cccs1 | > 20 µM (inactive)
Cc1cnc(NC(=O)C2COc3ccccc3O2)s1 (stereo unspecified) | > 20 µM (inactive)
O=C(C1=NNCC1c1ccccc1)C1CO1 (stereo unspecified) | 4.94 µM
Clc1cccc(Cl)c1Cn1ccc(C2CC2)n1 | 4.75 µM
O=S(=O)(c1cccc2cccnc12)N1CCN(c2ccc(F)cc2)CC1 | > 20 µM (inactive)
Cc1cc([N+](=O)[O-])nn1Cc1ccc(F)cc1 | 7.15 µM
COC(C(=O)Nc1ccc(S(=O)(=O)N2CCCCC2)cc1)c1ccccc1 (stereo unspecified) | > 20 µM (inactive)

SMILES | IC50
c1csc(Cc2nc3ccccc3[nH]2)c1 | 8.85 µM
O=C(Nc1ccc(Cl)cc1)N1N=CCC1c1ccccc1 (stereo unspecified) | 11.6 µM
COc1ccc(/C=N/Nc2ccccn2)cc1O | 14.8 µM
COc1ccc(-n2c(C)nn(CC3CC3)c2=O)cc1 | 5.12 µM
COc1ccc(NC(C)c2ccccc2)cc1 (stereo unspecified) | 14.1 µM
O=C(NNc1c(Cl)cccc1Cl)C1CCC1 | 9.85 µM
O=C(CN1CCN(C(c2ccccc2)c2ccccc2)CC1)N1N=CCC1c1ccccc1 (stereo unspecified) | > 20 µM (inactive)
CCn1c(O)c(C=NCc2ccccc2)sc1=S | > 20 µM (inactive)
COc1ccc(-n2c(C)nc3sc4c(c3c2=O)CCCC4)cc1 | 13.9 µM
Cc1cnc(NC(=O)C2(c3ccccc3)CC2)s1 | > 20 µM (inactive)
CN(CC1CCCO1)S(=O)(=O)c1ccc(C(=O)Nc2nccs2)cc1 (stereo unspecified) | 12.9 µM
O=C(CSc1nnnn1-c1ccccc1)N1N=CCC1c1ccccc1 (stereo unspecified) | 6.27 µM
O=S(=O)(Nc1ccccc1)c1ccc2c(c1)CCO2 | 9.75 µM
Fc1ccc(C2=NNC(=NCc3ccccc3)SC2)cc1F | > 20 µM (inactive)
Cc1ccc(C)c(C2=NNC(=NCc3ccccc3)SC2)c1 | 15.2 µM
Cc1ccc(C2CC(=O)NC(SCC(=O)Nc3nccs3)=C2C#N)cc1 (stereo unspecified) | > 20 µM (inactive)
O=C(Nc1ccccc1)N1N=CCC1c1ccccc1 (stereo unspecified) | 1.48 µM
COc1ccc(/C=N/Nc2nc3ccccc3s2)cc1O | > 20 µM (inactive)
Cc1csc(Nc2ccc(Cl)cc2)[n+]1-c1ccc(Cl)cc1 | > 20 µM (inactive)
O=C(Cn1cnc2ccc(Br)cc2c1=O)c1cccs1 | > 20 µM (inactive)
